From ChEMBL document CHEMBL3885861, “Open TG-GATES”

Species on record: Rattus norvegicus
Assay: Open TG-GATES - Regimen: Single
Type: toxicity, organism-based, Sprague-Dawley
Design: regimen Single, gender Male, age 6 weeks
Conditions: in vivo, iv, route intravenous injection; for Ca / Cl / DBIL / GLC / IP / K / LDH / Na / PL / RALB / TBIL / TC / TG / TP / gamma-GTP / A/G / ALP / ALT / AST / BUN / CRE: tissue Plasma; for APTT / Fbg / Hb / Ht / MCH / MCHC / MCV / PT / Plat / RBC / Ret / WBC: tissue Blood; for KIDNEY_L / KIDNEY_R / KIDNEY_TOTAL: tissue Kidney; for LIVER: tissue Liver
[1] = 3 mg/kg, 24 h, dose level Middle
[2] = 10 mg/kg, 24 h, dose level High

`C[C@@H]1C[C@@H]([C@H](O)CC2CC(=O)NC(=O)C2)C(=O)[C@@H](C)C1` [CYCLOHEXIMIDE] showed a Ca [1] of 9.8 mg/dL, a Cl [1] of 107.6 meq/L and a DBIL [1] of 0.004 mg/dL. The GLC [1] was 177 mg/dL, the IP [1] was 7.3 mg/dL and the K [1] was 4.4 meq/L. For the same compound, the LDH [1] was 231 IU/L, the Na [1] was 138.8 meq/L and the PL [1] was 74 mg/dL. For the same compound, the RALB [1] was 2.4 g/dL, the TBIL [1] was 0.028 mg/dL and the TC [1] was 38.4 mg/dL. For the same compound, the TG [1] was 80 mg/dL, the TP [1] was 4.2 g/dL and the gamma-GTP [1] was 1.6 IU/L. For the same compound, the TERMINAL_BW (10 mg/kg, 3 h, dose level High) was 216.7 g, the APTT (10 mg/kg, 3 h, dose level High) was 24.3 s and the Fbg (10 mg/kg, 3 h, dose level High) was 301 mg/dL. It also gave a Hb (10 mg/kg, 3 h, dose level High) of 15.2 g/dL, a Ht (10 mg/kg, 3 h, dose level High) of 47.2% and an MCH (10 mg/kg, 3 h, dose level High) of 21 pg. It also gave an MCHC (10 mg/kg, 3 h, dose level High) of 32.3%, an MCV (10 mg/kg, 3 h, dose level High) of 65.2 fL and a PT (10 mg/kg, 3 h, dose level High) of 18.5 s. For the same compound, the Plat (10 mg/kg, 3 h, dose level High) was 133.4 x10_4/uL, the RBC (10 mg/kg, 3 h, dose level High) was 726.4 x10_4/ul and the Ret (10 mg/kg, 3 h, dose level High) was 9.6%. The WBC (10 mg/kg, 3 h, dose level High) was 375 x10_2/uL, the KIDNEY_L (10 mg/kg, 3 h, dose level High) was 1 g and the KIDNEY_R (10 mg/kg, 3 h, dose level High) was 1 g. For the same compound, the KIDNEY_TOTAL (10 mg/kg, 3 h, dose level High) was 2 g, the LIVER (10 mg/kg, 3 h, dose level High) was 9.2 g and the A/G (10 mg/kg, 3 h, dose level High) was 1.3. The ALP (10 mg/kg, 3 h, dose level High) was 1467 IU/L, the ALT (10 mg/kg, 3 h, dose level High) was 74 IU/L and the AST (10 mg/kg, 3 h, dose level High) was 314.6 IU/L. For the same compound, the BUN (10 mg/kg, 3 h, dose level High) was 41.4 mg/dL, the CRE (10 mg/kg, 3 h, dose level High) was 0.1 mg/dL and the Ca (10 mg/kg, 3 h, dose level High) was 9.8 mg/dL. For the same compound, the Cl (10 mg/kg, 3 h, dose level High) was 109 meq/L, the DBIL (10 mg/kg, 3 h, dose level High) was 0.006 mg/dL and the GLC (10 mg/kg, 3 h, dose level High) was 334.2 mg/dL. It also gave an IP (10 mg/kg, 3 h, dose level High) of 13.4 mg/dL, a K (10 mg/kg, 3 h, dose level High) of 5.1 meq/L and an LDH (10 mg/kg, 3 h, dose level High) of 1625.2 IU/L. For the same compound, the Na (10 mg/kg, 3 h, dose level High) was 140 meq/L, the PL (10 mg/kg, 3 h, dose level High) was 82.4 mg/dL and the RALB (10 mg/kg, 3 h, dose level High) was 3 g/dL. It also gave a TBIL (10 mg/kg, 3 h, dose level High) of 0.014 mg/dL, a TC (10 mg/kg, 3 h, dose level High) of 63.8 mg/dL and a TG (10 mg/kg, 3 h, dose level High) of 20 mg/dL. The TP (10 mg/kg, 3 h, dose level High) was 5.3 g/dL, the gamma-GTP (10 mg/kg, 3 h, dose level High) was 3.2 IU/L and the TERMINAL_BW (10 mg/kg, 6 h, dose level High) was 213.8 g. For the same compound, the APTT (10 mg/kg, 6 h, dose level High) was 31.7 s, the Fbg (10 mg/kg, 6 h, dose level High) was 270.2 mg/dL and the Hb (10 mg/kg, 6 h, dose level High) was 17.7 g/dL. The Ht (10 mg/kg, 6 h, dose level High) was 54.8%, the MCH (10 mg/kg, 6 h, dose level High) was 21.6 pg and the MCHC (10 mg/kg, 6 h, dose level High) was 32.3%. The MCV (10 mg/kg, 6 h, dose level High) was 66.8 fL, the PT (10 mg/kg, 6 h, dose level High) was 29.8 s and the Plat (10 mg/kg, 6 h, dose level High) was 131.6 x10_4/uL. The RBC (10 mg/kg, 6 h, dose level High) was 818.8 x10_4/ul, the Ret (10 mg/kg, 6 h, dose level High) was 8.7% and the WBC (10 mg/kg, 6 h, dose level High) was 396.9 x10_2/uL. For the same compound, the KIDNEY_L (10 mg/kg, 6 h, dose level High) was 1 g, the KIDNEY_R (10 mg/kg, 6 h, dose level High) was 1 g and the KIDNEY_TOTAL (10 mg/kg, 6 h, dose level High) was 2 g. The LIVER (10 mg/kg, 6 h, dose level High) was 7.9 g, the A/G (10 mg/kg, 6 h, dose level High) was 1.1 and the ALP (10 mg/kg, 6 h, dose level High) was 1518.4 IU/L. It also gave an ALT (10 mg/kg, 6 h, dose level High) of 76.2 IU/L, an AST (10 mg/kg, 6 h, dose level High) of 315.8 IU/L and a BUN (10 mg/kg, 6 h, dose level High) of 69.4 mg/dL. The CRE (10 mg/kg, 6 h, dose level High) was 0.2 mg/dL, the Ca (10 mg/kg, 6 h, dose level High) was 7.2 mg/dL and the Cl (10 mg/kg, 6 h, dose level High) was 108.8 meq/L. For the same compound, the DBIL (10 mg/kg, 6 h, dose level High) was 0.002 mg/dL, the GLC (10 mg/kg, 6 h, dose level High) was 250.6 mg/dL and the IP (10 mg/kg, 6 h, dose level High) was 16.5 mg/dL. The K (10 mg/kg, 6 h, dose level High) was 6 meq/L, the LDH (10 mg/kg, 6 h, dose level High) was 1124 IU/L and the Na (10 mg/kg, 6 h, dose level High) was 138.8 meq/L. For the same compound, the PL (10 mg/kg, 6 h, dose level High) was 65 mg/dL, the RALB (10 mg/kg, 6 h, dose level High) was 2.8 g/dL and the TBIL (10 mg/kg, 6 h, dose level High) was 0.002 mg/dL. It also gave a TC (10 mg/kg, 6 h, dose level High) of 39 mg/dL, a TG (10 mg/kg, 6 h, dose level High) of 20.2 mg/dL and a TP (10 mg/kg, 6 h, dose level High) of 5.3 g/dL. It also gave a gamma-GTP (10 mg/kg, 6 h, dose level High) of 3.8 IU/L, a TERMINAL_BW (10 mg/kg, 9 h, dose level High) of 206.3 g and an APTT (10 mg/kg, 9 h, dose level High) of 47.2 s. The Fbg (10 mg/kg, 9 h, dose level High) was 228.4 mg/dL, the Hb (10 mg/kg, 9 h, dose level High) was 18.2 g/dL and the Ht (10 mg/kg, 9 h, dose level High) was 56.4%. For the same compound, the MCH (10 mg/kg, 9 h, dose level High) was 21.7 pg, the MCHC (10 mg/kg, 9 h, dose level High) was 32.3% and the MCV (10 mg/kg, 9 h, dose level High) was 67.4 fL. For the same compound, the PT (10 mg/kg, 9 h, dose level High) was 40.1 s, the Plat (10 mg/kg, 9 h, dose level High) was 112.8 x10_4/uL and the RBC (10 mg/kg, 9 h, dose level High) was 836.4 x10_4/ul. The Ret (10 mg/kg, 9 h, dose level High) was 8.9%, the WBC (10 mg/kg, 9 h, dose level High) was 386.2 x10_2/uL and the KIDNEY_L (10 mg/kg, 9 h, dose level High) was 1.1 g. It also gave a KIDNEY_R (10 mg/kg, 9 h, dose level High) of 1.1 g, a KIDNEY_TOTAL (10 mg/kg, 9 h, dose level High) of 2.1 g and an LIVER (10 mg/kg, 9 h, dose level High) of 7.9 g. It also gave an A/G (10 mg/kg, 9 h, dose level High) of 1.4, an ALP (10 mg/kg, 9 h, dose level High) of 1345.4 IU/L and an ALT (10 mg/kg, 9 h, dose level High) of 87.8 IU/L. For the same compound, the AST (10 mg/kg, 9 h, dose level High) was 291.8 IU/L, the BUN (10 mg/kg, 9 h, dose level High) was 94.4 mg/dL and the CRE (10 mg/kg, 9 h, dose level High) was 0.3 mg/dL. It also gave a Ca (10 mg/kg, 9 h, dose level High) of 6.6 mg/dL, a Cl (10 mg/kg, 9 h, dose level High) of 109 meq/L and a DBIL (10 mg/kg, 9 h, dose level High) of 0.0125 mg/dL. The GLC (10 mg/kg, 9 h, dose level High) was 215.2 mg/dL, the IP (10 mg/kg, 9 h, dose level High) was 17.4 mg/dL and the K (10 mg/kg, 9 h, dose level High) was 6.6 meq/L. The LDH (10 mg/kg, 9 h, dose level High) was 1399 IU/L, the Na (10 mg/kg, 9 h, dose level High) was 136 meq/L and the PL (10 mg/kg, 9 h, dose level High) was 69.6 mg/dL. The RALB (10 mg/kg, 9 h, dose level High) was 2.9 g/dL, the TBIL (10 mg/kg, 9 h, dose level High) was 0.01 mg/dL and the TC (10 mg/kg, 9 h, dose level High) was 34.4 mg/dL. It also gave a TG (10 mg/kg, 9 h, dose level High) of 61.4 mg/dL, a TP (10 mg/kg, 9 h, dose level High) of 5.2 g/dL and a gamma-GTP (10 mg/kg, 9 h, dose level High) of 3 IU/L. For the same compound, the TERMINAL_BW [2] was 198.6 g, the APTT [2] was 70.4 s and the Fbg [2] was 149.5 mg/dL. It also gave a Hb [2] of 16.4 g/dL, a Ht [2] of 49.4% and an MCH [2] of 20.9 pg. The MCHC [2] was 33.3%, the MCV [2] was 62.8 fL and the PT [2] was 35.1 s. For the same compound, the Plat [2] was 81.8 x10_4/uL, the RBC [2] was 784.5 x10_4/ul and the Ret [2] was 7.3%. For the same compound, the WBC [2] was 413.2 x10_2/uL, the KIDNEY_L [2] was 1 g and the KIDNEY_R [2] was 1 g. The KIDNEY_TOTAL [2] was 2 g, the LIVER [2] was 8 g and the A/G [2] was 1.3. The ALP [2] was 903.5 IU/L, the ALT [2] was 57.5 IU/L and the AST [2] was 192 IU/L. For the same compound, the BUN [2] was 106 mg/dL, the CRE [2] was 0.3 mg/dL and the Ca [2] was 7 mg/dL. It also gave a Cl [2] of 112 meq/L, a DBIL [2] of 0.02 mg/dL and a GLC [2] of 134 mg/dL. It also gave an IP [2] of 13.4 mg/dL, a K [2] of 5.3 meq/L and an LDH [2] of 1196.5 IU/L. For the same compound, the Na [2] was 141.5 meq/L, the PL [2] was 80 mg/dL and the RALB [2] was 2.5 g/dL. It also gave a TBIL [2] of 0.045 mg/dL, a TC [2] of 59 mg/dL and a TG [2] of 66.5 mg/dL. It also gave a TP [2] of 4.5 g/dL and a gamma-GTP [2] of 4 IU/L.
